“Also recorded” adds a separate entry of the source.
Key:
GL261 cells [1] = test: GL261 cell multiplicity after Tetrac exposure; assay type: cell-based, murine; conditions: one hour exposure to Tetrac
Method: Cell multiplicity (CM) was determined from Giemsa stained slides by counting the number of cells per microcolony under 20× magnification. At least 400 microcolonies were counted.
The length of time that Tetrac biologically affected GL261 cells was also determined. To do this, the multiplicity relationship defined above was utilized. Tetrac was added to cells one hour prior to the determination of the multiplicity. After the exposure of exponentially growing GL261 cells to Tetrac, the Tetrac containing medium was removed from GL261 cells, which contained an unknown residual and fresh medium (without Tetrac) was added. As a function of time (i.e., 0, 1, 2, 3, 4, 6, 8, and 10 hours, and 1-6 days), the cells, containing an unknown residual amount of remaining Tetrac, were then processed for determination of the multiplicity index (i.e. the number of cells per microcolony).

SKN-SH/R cells = test: Senescence and apoptosis in drug resistant cells; assay type: cell-based; conditions: 24 h
Method: In FIG. 16A, SKN-SH/R cells were subjected to treatment doxorubicin (Dox) alone, Tetrac alone, or the combination of both for 24 h. Expression of p21/WAF1, cleaved caspase-3 (Cl-Casp-3) and beta action were measured by Western blot using specific antibodies. In FIG. 16B, the cells were seeded in 24 well plates and treated as mentioned above and expression of the senescence associated beta galactosidase (SA-β-Gal.) was assayed as described in the methods section. In FIG. 16C, the cells were seeded on cover slips and treated with the drugs as above for 24 h, after which they were fixed and stained with Hoechst and the percentage of positive cells graphed. The data represent average of 3 determinations±SE.

TTR (Transthyretin) = TTR (Transthyretin) (Homo sapiens, UniProt P02766); test: TTR displacement assay; assay type: binding
Source text: Determination of the optimal or preferred density of the thyroid hormone or thyroid hormone analog bound to the nanoparticles is within the routine skill level in the art. For example, those skilled in the art will recognize that TTR (Transthyretin) can be used as the basis for a displacement assay in order to quantify the amount of Tetrac bound to nanoparticles. Specifically, such assays involve in vitro displacement of radiolabeled T4 from TTR by Tetrac or Tetrac nanoparticles (Tetrac NP). […] Amounts of nanoparticulate Tetrac in unknown suspensions (i.e., biologic fluids) are then calculated from the displacement of radiolabeled T4. […] The tubes are mixed and incubated for 16 hours at 4° C. The bound and free hormones are separated by adding dextran-coated charcoal (DCC) to each tube, which is then centrifuged at 12,000×g for 2 min. at 4° C. Bound [I^125] T4 in the supernatant is measured by scintillation counting.

[2] = tested on: doxorubicin-resistant MCF7/R cells; test: Doxorubicin-resistant tumors in nude mice; assay type: in vivo
Method: Mice were injected with doxorubicin-resistant MCF7/R cells (10^6) and after 10 days, they were assigned into groups of seven mice each and challenged with doxorubicin (2 mg/kg) or Tetrac (30 mg/kg) either alone or in combination. Tumor volume was measured every 3 days for up to three weeks.

human MTC cells = test: RNA microarray of h-MTC cells; assay type: cell-based
Method: Technical aspects of microarray studies, stringent quality control of microarray studies and statistic analysis of gene expression were as described previously. […] In brief, the array hybridization and processing, data retrieval and the analysis were carried out with standard sets of Affymetrix (Santa Clara, Calif.) equipment, software and protocols in an Affymetrix microarray core facility. RNA was extracted from cell cultures of two independent biological replicates of each experimental condition and analyzed for sample purity and integrity, using BioAnalyzer instrumentation (Agilent, Santa Clara, Calif.). Expression analysis of 54,675 transcripts was conducted for each sample, using Affymetrix HG-U133A Plus 2.0 arrays. Data retrieval and analysis was completed by MAS5.0 software. Concordant changes of gene expression for each experimental condition were determined at the statistical threshold P value, <0.01 (two-tailed t test).

[3] = tested on: SKN-SH, SaOS2 and MCF7 cells, drug-sensitive and -resistant; test: MTT cell viability of drug-sensitive and drug-resistant cancer cells; assay type: cell-based; conditions: 4 days
Method: Drug-sensitive and -resistant SKN-SH (FIGS. 13C-D), SaOS2 (FIGS. 13A-B), and MCF7 (FIGS. 13E-F) cells were subjected to treatment with increasing concentrations of Tetrac or Doxirubicin over a period of 4 days. Cell viability was then measured by MTT assay. The data represent the average of 4 determinations±SE.
Doxorubicin resistant SKN-SH/R, MCF7/R and SaOS2/R cells were subjected to treatment with Tetrac either alone or in combination with each of doxorubicin (Dox), etoposide (Etop), cisplatin (Cisp), or trichostatin A (TSA) at the indicated concentrations, After 4 days in cell viability was determined by the MTT assay and the data represented as average of 3 determinations±SE.

human cancer xenografts = conditions: in vivo; cited from earlier work
GL261 cells [4] = test: GL261 sublethal damage repair (SLDR), split dose; assay type: cell-based, murine
Method: SLDR was measured at 10% immediate survival level as determined from the acute single dose curve for both control and Tetrac-treated cells in both growth states (i.e. exponentially growing and plateau phase cells. Flasks were irradiated with one-half of the total dose and returned to the 37° C. incubator. At increasing periods of time, flasks were removed, and given the second half of the immediate 10% survival dose. Survival was measured at 0, 0.5, 1.0, 1.5, 2.0, 3.0, 4.0, 6.0, 8.0, and 10.0 hours after the initial dose.
To investigate the effects of Tetrac on SLDR and PLDR, cells were chosen that had been given a one-hour treatment with Tetrac at two different times, i.e., at 70 and 270 hours post-seeding).

[5] = tested on: chick chorioallantoic membrane (CAM) blood vessel branch points; test: Chick chorioallantoic membrane (CAM) model of angiogenesis; assay type: in vivo
Method: In vivo neovascularization was examined by methods described previously. 9-12 Ten-day-old chick embryos were purchased from SPAFAS (Preston, Conn.) and incubated at 37° C. with 55% relative humidity. A hypodermic needle was used to make a small hole in the shell concealing the air sac, and a second hole was made on the broad side of the egg, directly over an avascular portion of the embryonic membrane that was identified by candling. A false air sac was created beneath the second hole by the application of negative pressure at the first hole, causing the CAM to separate from the shell. […] Thyroid hormone, hormone analogs, FGF2 or control solvents, and inhibitors were then applied to the disks and the disks allowed to dry. The disks were then suspended in PBS and placed on growing CAMs. […] At 24 hours, the MAPK cascade inhibitor PD 98059 was also added to CAMs topically by means of the filter disks. […] The number of vessel branch points contained in a circular region equal to the area of each filter disk were counted. […] In addition, each experiment was performed 3 times. The resulting angiogenesis index is the mean±SEM of new branch points.

[6] = tested on: human medullary carcinoma of the thyroid (MTC) xenograft; test: MTC xenograft in nude mice; conditions: mouse, in vivo
Source text: Water and food were provided ad libitum.

O=C(O)Cc1cc(I)c(Oc2cc(I)c(O)c(I)c2)c(I)c1 [Tetrac, tetraiodothyroacetic acid]
time for a 50% return of the cell multiplicity factor towards control (GL261 cells [1]): approximately 2.5 days | time post Tetrac treatment at which the decrease in the CM factor was at 50% (GL261 cells [1]): 60 h | doxorubicin-induced proliferation arrest (p21/WAF1), SA-β-Gal and cell death (in words) (SKN-SH/R cells): dramatically enhanced | affinity of TTR relative to that for T4 (TTR (Transthyretin)): 100 times | toxic effect (in words) ([2]; Tetrac 30 mg/kg): without any noticeable toxic effect | doxorubicin-sensitivity in vivo (in words) ([2]; Tetrac 30 mg/kg with doxorubicin 2 mg/kg): not restored | growth of doxorubicin-resistant tumors (in words) ([2]; Tetrac 30 mg/kg, up to three weeks): effective in suppressing the growth of drug resistant tumors | expression of VEGFA (in words) (human MTC cells): significantly decreased | expression of genes associated with induction of apoptosis: CASP2, DFFA, FAF1, CASP8AP2 (in words) (human MTC cells): caused expression | expression of thrombospondin (THBS1) gene (in words) (human MTC cells): increase | anti-proliferative activity against drug-sensitive vs drug-resistant cells (in words) ([3]; MTT): equivalent anti-proliferative activity | cellular responses to doxorubicin, etoposide, cisplatin and TSA when combined with Tetrac (in words) ([3]; doxorubicin resistant SKN-SH/R, MCF7/R and SaOS2/R cells): significantly enhanced | systemic toxicity (in words) (human cancer xenografts): have not to-date shown systemic toxicity | half-time for Tetrac uptake (Tetrac uptake): 10 to 15 min | repair of x-ray damage at 6 to 8 hours post-irradiation (in words) (GL261 cells [4]; 2 uM, FIG. 58, control repaired by a factor of 4 to 5): showed no repair of x-ray damage | reduction of SLDR by a factor of (GL261 cells [4]; exponential cells): 1.8 | SLDR recovery ratio at 10 hours post-irradiation (GL261 cells [4]; exponential cells, two 2.50 Gy split doses, control approximately 4 to 5): approximately 2.2 | SLDR recovery ratio at 2 hours after the first dose (GL261 cells [4]; exponential cells, control approximately 2.5): 1.8 | survival at 3 hours after the initial dose, relative to survival at 0 hours (fixation of damage) (GL261 cells [4]; plateau phase cells with Tetrac): approximately 36% | decrease in cellular repair (SLDR) by a factor of (GL261 cells [4]; plateau phase cells, three hours post-irradiation): ~3 | effect on angiogenesis stimulated by T4-agarose (in words) ([5]; T4-agarose 0.1 μmol/L + Tetrac): inhibited | effect on angiogenesis stimulated by T4 (in words) ([5]; Tetrac 0.1 μmol/L, T4 0.1 μmol/L): inhibited the action of T4 | effect of Tetrac alone on angiogenesis (in words) ([5]; Tetrac alone): had no effect on angiogenesis; also recorded: does not stimulate angiogenesis | mortality (in words) [6]: no mortality
